Read-outs that look alike come from different tables or passages of the source.
What was measured:
mushroom tyrosinase = experiment: Mushroom tyrosinase inhibition assay; assay type: biochemical; details: for IC50: mean ± SEM of three experiments
Description: As mushroom tyrosinase is commercially available and relatively cheap, it is used as a tool for the identification of novel tyrosinase inhibitors. Here, we examined the tyrosinase inhibitory activities of the 14 BABT derivatives against mushroom tyrosinase in the presence of L-tyrosine or L-dopa as substrates.
Mushroom tyrosinase inhibitory activities of BABT derivatives were determined as described previously, with minor modifications. L-Tyrosine and L-dopa were used as substrates to evaluate the enzyme activity. […] Assay mixtures were incubated at 37 °C for 30 min, and dopachrome amounts synthesized were determined by measuring the optical density of each well at 475 nm using a microplate reader (VersaMax; Molecular Devices, Sunnyvale, CA, USA).

tyrosinase = experiment: Western blotting of tyrosinase protein expression; assay type: cell-based, murine
Description: We investigated whether, in addition to the direct inhibition of tyrosinase, another inhibitory mechanism of melanogenesis by derivative 8 may be related to the expression of proteins involved in melanogenesis. For the Western blotting experiment, B16F10 cells were treated with α-MSH (1 µM) plus IBMX (200 µM), leading to a 1.7- and 4.9-fold increase in expression levels of melanogenesis-associated proteins tyrosinase and MITF, compared to those in the untreated control (100%) (Figure 13).
B16F10 cells were seeded in a 60 mm dish at a density of 5 × 10^5 cells/mL for 24 h, washed with cold PBS, and harvested. Cytosolic and nuclear fractions of cell lysates were extracted using lysis buffer, as described previously. Protein concentrations in the cell lysates were estimated using the BCA protein assay (Pierce, Rockford, IL, USA). […] The membranes were washed and protein bands detected using the SuperSignal West Pico Chemiluminescence assay kit (Advansta, San Jose, CA, USA) and the Davinch–Chem program (Davinch-K, Seoul, Republic of Korea). Immunoblotting data were quantified using CS Analyzer 3.2 (Densitograph) image analysis software (http://www.attokorea.co.kr, accessed on 21 November 2022).

[1] = target: T1, B16F10 cellular tyrosinase (Mus musculus, UniProt P11344); experiment: Cellular anti-tyrosinase activity assay; assay type: cell-based, murine; details: α-MSH plus IBMX stimulated B16F10 cells, 72 h
T1 construct: host or cells: B16F10 murine melanoma cells
T1 sequence (P11344 19-533): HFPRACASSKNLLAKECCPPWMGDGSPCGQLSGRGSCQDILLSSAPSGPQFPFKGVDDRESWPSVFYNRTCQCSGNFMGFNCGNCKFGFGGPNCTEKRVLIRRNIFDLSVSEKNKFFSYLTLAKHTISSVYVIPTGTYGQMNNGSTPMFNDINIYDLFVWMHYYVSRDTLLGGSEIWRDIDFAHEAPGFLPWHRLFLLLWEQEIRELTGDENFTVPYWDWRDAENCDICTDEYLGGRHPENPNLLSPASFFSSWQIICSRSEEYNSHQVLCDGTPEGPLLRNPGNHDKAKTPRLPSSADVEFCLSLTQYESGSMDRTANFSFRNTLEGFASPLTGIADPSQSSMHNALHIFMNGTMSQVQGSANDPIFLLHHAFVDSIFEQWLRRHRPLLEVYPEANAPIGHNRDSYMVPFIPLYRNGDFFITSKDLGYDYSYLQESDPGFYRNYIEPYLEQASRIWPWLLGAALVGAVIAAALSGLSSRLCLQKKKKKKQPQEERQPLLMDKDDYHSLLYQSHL
Description: Briefly, B16F10 cells were seeded at 1 × 10^5 cells/well in a 6-well plate and allowed to adhere to well bottoms for 24 h. […] Then, a stimulator (0.5 µM α-MSH plus 200 µM IBMX) was applied to increase the cellular tyrosinase activity, and the cells were cultured for 72 h under the conditions used for cell cultures. Cultured cells were washed twice with PBS and exposed to an aliquot (100 µL) of the lysis buffer solution containing 20% Triton X-100 (5 µL), 50 mM phosphate buffer (pH 6.5, 90 µL), and 2 mM phenylmethylsulfonyl fluoride (5 µL) to lyse the cultured cells for 30 min at −80 °C. After defrosting, the cell lysates were transferred to microcentrifuge tubes and centrifuged for 30 min at 4 °C and 12,000 rpm, and the supernatants (80 µL) in each well were mixed with 20 µL L-dopa (2 mg/mL) and incubated at 37 °C for 10 min. The absorbance of dopachrome was measured at 475 nm using a microplate reader (VersaMax; Molecular Devices).

fold higher IC50 value with L-dopa than with L-tyrosine (mushroom tyrosinase; L-dopa versus L-tyrosine as substrate): 4 fold | IC50 (mushroom tyrosinase; substrate L-dopa, read-out: IC50 (µM) L-Dopa): 1.04 ± 0.05 µM | fold more potent than kojic acid (mushroom tyrosinase; substrate L-tyrosine): 106 fold | IC50 (mushroom tyrosinase; substrate L-tyrosine, read-out: IC50 (µM) L-Tyrosine): 0.27 ± 0.03 µM | inhibition of cellular tyrosinase activity (in words) ([1]; 5 µM): more than that by kojic acid at 20 µM | cellular tyrosinase activity compared to untreated control ([1]; 20 µM): 1.7 fold
SMILES: O=C1N=C(NCc2ccccc2)S/C1=C\c1ccc(O)cc1O [Compound 8, (Z)-2-(benzylamino)-5-(2,4-dihydroxybenzylidene)thiazol-4(5H)-one]
relative expression level of tyrosinase protein (tyrosinase; 10 µM, α-MSH plus IBMX treated B16F10 cells): lowered the protein expression to the same or lower control levels | relative expression level of tyrosinase protein (tyrosinase; 5, 10 and 20 µM, α-MSH (1 µM) plus IBMX (200 µM) treated B16F10 cells): significantly reduced the relative expression levels of tyrosinase and MITF in a dose-dependent manner

Source: article PMC9865752, “Design and Synthesis of (Z)-2-(Benzylamino)-5-benzylidenethiazol-4(5H)-one Derivatives as Tyrosinase Inhibitors and Their Anti-Melanogenic and Antioxidant Effects” (Molecules, 2023)
